How the values were obtained:
[1] = molecular target: T1, Androgen receptor (Rattus norvegicus, UniProt P15207); also: in other assays of this panel Not Active means under 50% inhibition at 10 µM
T1 sequence (P15207 whole entry): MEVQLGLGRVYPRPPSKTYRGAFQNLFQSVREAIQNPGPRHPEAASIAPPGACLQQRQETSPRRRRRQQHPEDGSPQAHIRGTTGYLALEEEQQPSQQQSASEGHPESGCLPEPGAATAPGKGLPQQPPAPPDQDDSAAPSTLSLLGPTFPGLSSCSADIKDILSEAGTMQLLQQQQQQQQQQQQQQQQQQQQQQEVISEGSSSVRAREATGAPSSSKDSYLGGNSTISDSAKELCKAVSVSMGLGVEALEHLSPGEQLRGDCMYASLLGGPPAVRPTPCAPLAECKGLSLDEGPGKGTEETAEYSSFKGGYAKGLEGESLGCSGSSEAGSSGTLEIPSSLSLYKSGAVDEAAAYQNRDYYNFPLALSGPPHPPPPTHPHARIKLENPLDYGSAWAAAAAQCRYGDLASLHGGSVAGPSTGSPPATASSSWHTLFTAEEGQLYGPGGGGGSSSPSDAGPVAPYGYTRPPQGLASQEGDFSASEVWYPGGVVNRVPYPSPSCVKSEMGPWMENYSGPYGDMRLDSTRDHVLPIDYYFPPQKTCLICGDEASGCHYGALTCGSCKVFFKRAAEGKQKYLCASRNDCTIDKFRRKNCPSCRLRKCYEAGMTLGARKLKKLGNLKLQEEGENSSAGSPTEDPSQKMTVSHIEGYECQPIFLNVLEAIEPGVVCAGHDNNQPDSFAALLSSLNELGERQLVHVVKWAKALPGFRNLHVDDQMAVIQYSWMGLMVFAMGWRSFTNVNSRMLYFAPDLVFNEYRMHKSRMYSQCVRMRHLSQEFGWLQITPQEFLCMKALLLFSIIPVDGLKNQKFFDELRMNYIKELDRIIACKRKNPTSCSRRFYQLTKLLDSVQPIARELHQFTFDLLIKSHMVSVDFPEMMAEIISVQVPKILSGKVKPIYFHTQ

[2] = molecular target: Cytochrome P450 2C19 (Homo sapiens, UniProt P33261); conditions: bti-tn-5b1-4; also: in other assays of this panel Not Active means under 50% inhibition at 10 µM
Cytochrome P450 2C19, sequence (P33261 whole entry): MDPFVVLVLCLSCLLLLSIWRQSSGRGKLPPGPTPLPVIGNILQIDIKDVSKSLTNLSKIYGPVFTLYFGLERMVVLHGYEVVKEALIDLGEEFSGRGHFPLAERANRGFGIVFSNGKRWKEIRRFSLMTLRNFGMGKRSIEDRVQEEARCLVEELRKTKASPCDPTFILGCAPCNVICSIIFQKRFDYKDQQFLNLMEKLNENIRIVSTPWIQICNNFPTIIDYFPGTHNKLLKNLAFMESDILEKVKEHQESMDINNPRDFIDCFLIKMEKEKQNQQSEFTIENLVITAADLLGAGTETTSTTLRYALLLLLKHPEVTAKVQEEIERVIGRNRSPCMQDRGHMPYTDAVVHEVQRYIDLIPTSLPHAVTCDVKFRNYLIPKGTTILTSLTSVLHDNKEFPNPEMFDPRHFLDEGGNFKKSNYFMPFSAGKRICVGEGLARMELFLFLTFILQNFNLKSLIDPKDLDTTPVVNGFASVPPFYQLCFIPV

[3] = molecular target: T2, Cytochrome P450 1A2 (Homo sapiens, UniProt P05177); conditions: bti-tn-5b1-4; also: in other assays of this panel Not Active means under 50% inhibition at 10 µM
T2 sequence (P05177 whole entry): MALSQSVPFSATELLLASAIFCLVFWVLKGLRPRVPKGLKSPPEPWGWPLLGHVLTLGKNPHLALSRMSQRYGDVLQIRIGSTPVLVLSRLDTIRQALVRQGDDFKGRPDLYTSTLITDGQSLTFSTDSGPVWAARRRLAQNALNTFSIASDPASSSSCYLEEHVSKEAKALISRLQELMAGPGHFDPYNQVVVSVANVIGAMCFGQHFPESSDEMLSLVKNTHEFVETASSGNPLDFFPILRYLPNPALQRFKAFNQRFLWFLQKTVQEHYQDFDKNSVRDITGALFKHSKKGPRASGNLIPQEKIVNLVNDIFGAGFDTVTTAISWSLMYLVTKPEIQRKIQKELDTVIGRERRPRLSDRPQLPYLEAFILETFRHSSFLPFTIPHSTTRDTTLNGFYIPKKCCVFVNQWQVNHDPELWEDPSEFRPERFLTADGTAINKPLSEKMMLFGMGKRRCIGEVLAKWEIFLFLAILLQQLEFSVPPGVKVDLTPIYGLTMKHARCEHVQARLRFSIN

[4] = molecular target: T3, Glucocorticoid receptor (Homo sapiens, UniProt P04150); conditions: hela s3; also: in other assays of this panel Not Active means under 50% inhibition at 10 µM
T3 sequence (P04150 whole entry): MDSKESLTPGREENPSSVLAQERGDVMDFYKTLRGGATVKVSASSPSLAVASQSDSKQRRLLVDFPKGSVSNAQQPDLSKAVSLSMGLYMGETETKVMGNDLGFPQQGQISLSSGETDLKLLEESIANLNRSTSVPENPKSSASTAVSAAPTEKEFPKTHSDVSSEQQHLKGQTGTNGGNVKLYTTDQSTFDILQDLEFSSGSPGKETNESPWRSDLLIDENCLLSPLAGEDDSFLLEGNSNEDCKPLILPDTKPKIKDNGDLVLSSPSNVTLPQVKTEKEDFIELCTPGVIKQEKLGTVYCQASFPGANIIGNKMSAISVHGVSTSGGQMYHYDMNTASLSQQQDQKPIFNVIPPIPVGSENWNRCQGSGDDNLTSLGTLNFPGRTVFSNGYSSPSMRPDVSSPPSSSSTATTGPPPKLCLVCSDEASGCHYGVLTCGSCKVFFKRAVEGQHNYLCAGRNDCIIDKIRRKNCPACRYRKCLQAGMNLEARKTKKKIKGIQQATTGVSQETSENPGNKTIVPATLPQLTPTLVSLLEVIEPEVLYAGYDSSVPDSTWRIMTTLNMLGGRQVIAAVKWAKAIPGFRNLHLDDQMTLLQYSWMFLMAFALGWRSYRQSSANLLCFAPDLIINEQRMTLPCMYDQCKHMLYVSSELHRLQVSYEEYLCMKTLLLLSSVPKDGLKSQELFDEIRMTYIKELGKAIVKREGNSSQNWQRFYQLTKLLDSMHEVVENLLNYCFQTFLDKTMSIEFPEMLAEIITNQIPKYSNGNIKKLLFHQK

[5] = molecular target: Voltage-gated inwardly rectifying potassium channel KCNH2 (Homo sapiens, UniProt Q12809); conditions: hek293; also: in other assays of this panel Not Active means under 50% inhibition at 10 µM
Voltage-gated inwardly rectifying potassium channel KCNH2, sequence (Q12809 whole entry): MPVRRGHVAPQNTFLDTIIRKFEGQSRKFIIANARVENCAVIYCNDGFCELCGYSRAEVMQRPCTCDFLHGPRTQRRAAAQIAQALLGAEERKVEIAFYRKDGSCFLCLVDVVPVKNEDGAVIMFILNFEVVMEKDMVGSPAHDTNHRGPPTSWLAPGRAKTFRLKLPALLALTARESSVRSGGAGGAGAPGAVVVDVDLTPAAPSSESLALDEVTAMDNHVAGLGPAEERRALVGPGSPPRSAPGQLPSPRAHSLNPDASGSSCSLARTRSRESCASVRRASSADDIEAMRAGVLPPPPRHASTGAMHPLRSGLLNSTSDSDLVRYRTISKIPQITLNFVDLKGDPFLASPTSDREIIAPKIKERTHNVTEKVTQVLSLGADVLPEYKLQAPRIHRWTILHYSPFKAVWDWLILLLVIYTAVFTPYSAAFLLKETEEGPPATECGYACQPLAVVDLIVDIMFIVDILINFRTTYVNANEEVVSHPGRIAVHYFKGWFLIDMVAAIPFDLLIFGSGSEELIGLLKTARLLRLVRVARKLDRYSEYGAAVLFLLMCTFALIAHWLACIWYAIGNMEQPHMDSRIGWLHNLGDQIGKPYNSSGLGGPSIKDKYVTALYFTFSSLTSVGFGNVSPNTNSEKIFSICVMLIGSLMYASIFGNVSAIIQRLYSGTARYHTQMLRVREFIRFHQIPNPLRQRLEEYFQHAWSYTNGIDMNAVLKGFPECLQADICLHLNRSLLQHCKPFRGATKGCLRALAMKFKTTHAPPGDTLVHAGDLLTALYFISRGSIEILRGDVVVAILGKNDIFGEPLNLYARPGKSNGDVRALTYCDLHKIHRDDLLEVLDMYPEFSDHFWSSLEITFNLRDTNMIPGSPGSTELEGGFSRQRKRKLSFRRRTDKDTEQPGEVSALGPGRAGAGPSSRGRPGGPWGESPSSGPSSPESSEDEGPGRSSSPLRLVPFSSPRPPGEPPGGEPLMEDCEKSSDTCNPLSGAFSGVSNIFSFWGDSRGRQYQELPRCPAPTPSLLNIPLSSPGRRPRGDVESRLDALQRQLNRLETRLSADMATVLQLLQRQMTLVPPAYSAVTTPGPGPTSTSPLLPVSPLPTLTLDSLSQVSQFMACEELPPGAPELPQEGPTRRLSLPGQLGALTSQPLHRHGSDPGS

[6] = molecular target: Cytochrome P450 2D6 (Homo sapiens, UniProt P10635); conditions: bti-tn-5b1-4; also: in other assays of this panel Not Active means under 50% inhibition at 10 µM
Cytochrome P450 2D6, sequence (P10635 whole entry): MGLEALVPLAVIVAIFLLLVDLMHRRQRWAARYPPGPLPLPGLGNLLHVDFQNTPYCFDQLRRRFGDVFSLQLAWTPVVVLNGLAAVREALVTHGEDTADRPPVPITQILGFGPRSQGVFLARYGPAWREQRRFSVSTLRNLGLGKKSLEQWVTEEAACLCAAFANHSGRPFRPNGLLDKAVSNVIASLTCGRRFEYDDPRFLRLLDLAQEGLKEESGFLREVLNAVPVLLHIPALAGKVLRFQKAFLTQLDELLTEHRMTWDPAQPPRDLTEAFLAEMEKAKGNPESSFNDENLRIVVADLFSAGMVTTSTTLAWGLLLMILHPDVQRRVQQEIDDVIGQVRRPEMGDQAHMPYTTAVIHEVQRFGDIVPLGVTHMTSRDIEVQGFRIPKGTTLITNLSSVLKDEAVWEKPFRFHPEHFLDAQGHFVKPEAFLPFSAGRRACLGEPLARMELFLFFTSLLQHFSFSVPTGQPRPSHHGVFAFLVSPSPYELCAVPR

[7] = molecular target: Cytochrome P450 3A4 (Homo sapiens, UniProt P08684); conditions: bti-tn-5b1-4; also: in other assays of this panel Not Active means under 50% inhibition at 10 µM
Cytochrome P450 3A4, sequence (P08684 whole entry): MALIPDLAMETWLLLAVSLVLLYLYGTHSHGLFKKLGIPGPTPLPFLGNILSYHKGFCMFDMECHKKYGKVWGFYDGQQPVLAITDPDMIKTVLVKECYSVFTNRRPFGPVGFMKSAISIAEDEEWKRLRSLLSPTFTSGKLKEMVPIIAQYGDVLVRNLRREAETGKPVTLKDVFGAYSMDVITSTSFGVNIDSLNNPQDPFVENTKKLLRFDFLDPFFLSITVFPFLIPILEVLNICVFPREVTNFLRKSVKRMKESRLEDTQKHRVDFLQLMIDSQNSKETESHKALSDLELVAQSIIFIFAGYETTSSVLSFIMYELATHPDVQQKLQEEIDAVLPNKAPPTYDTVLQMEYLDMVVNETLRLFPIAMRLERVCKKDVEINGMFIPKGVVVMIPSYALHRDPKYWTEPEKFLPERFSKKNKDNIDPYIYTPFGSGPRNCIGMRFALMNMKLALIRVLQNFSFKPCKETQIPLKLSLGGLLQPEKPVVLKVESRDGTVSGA

[8] = molecular target: Sodium-dependent noradrenaline transporter (Homo sapiens, UniProt P23975); assay: DRUGMATRIX: Norepinephrine Transporter radioligand binding (ligand: [125I] RTI-55); assay type: cell membranes, MDCK, Membrane; conditions: Not Active = under 50% inhibition at 10 µM
Sodium-dependent noradrenaline transporter, sequence (P23975 whole entry): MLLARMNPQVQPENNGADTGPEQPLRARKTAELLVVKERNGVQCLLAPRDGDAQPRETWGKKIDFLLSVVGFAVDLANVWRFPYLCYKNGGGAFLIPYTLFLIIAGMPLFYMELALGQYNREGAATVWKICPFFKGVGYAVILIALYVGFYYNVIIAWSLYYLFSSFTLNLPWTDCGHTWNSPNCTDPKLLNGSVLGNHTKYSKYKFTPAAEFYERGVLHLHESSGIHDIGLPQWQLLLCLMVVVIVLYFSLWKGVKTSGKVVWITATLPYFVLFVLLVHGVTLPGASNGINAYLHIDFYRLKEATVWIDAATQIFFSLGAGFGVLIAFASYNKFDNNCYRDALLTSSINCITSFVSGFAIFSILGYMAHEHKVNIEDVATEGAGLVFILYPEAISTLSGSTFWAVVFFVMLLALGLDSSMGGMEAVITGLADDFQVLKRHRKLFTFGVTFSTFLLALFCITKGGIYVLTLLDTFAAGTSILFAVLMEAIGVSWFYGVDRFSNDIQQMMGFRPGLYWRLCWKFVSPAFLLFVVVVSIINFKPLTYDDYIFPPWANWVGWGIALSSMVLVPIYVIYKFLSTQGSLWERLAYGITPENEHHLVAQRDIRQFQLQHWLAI

Compound	IC50 [1]	IC50 [2]	Ki [2]	IC50 [3]	Ki [3]	IC50 [4]	IC50 [5]	Ki [5]	IC50 [6]	Ki [6]	IC50 [7]	Ki [7]	IC50 ([8]; mdck)	IC50 ([8]; read-out: IC50) [µM]	Ki ([8]; read-out: Ki) [µM]	Ki [4]	Ki ([8]; mdck)
COc1cccc(C2(O)CCCCC2CN(C)C)c1 (stereo not drawn) [TRAMADOL]	Not Active	Not Active	Not Active	Not Active	Not Active	Not Active	Not Active	Not Active	Not Active	Not Active	–	–	–	–	–	–	–
CC(C)(O)c1ccccc1CC[C@@H](SCC1(CC(=O)O)CC1)c1cccc(/C=C/c2ccc3ccc(Cl)cc3n2)c1 [MONTELUKAST]	Not Active	Not Active	Not Active	Not Active	Not Active	Not Active	Not Active	Not Active	Not Active	Not Active	Not Active	Not Active	–	–	–	–	–
CC(C)(C)NCC(O)c1ccc(O)c(CO)c1 (stereo not drawn) [ALBUTEROL]	–	Not Active	Not Active	Not Active	Not Active	Not Active	Not Active	Not Active	Not Active	Not Active	Not Active	Not Active	Not Active	–	–	–	–
O=C1c2c(O)ccc(O)c2C(=O)c2c(NCCNCCO)ccc(NCCNCCO)c21 [MITOXANTRONE]	Not Active	–	–	–	–	Not Active	–	–	–	–	–	–	–	4.99	4.95	–	–
O=[N+]([O-])c1cc([As](=O)(O)O)ccc1O [ROXARSONE]	–	Not Active	Not Active	Not Active	Not Active	Not Active	Not Active	Not Active	Not Active	Not Active	Not Active	Not Active	Not Active	–	–	Not Active	Not Active
Cc1ncc([N+](=O)[O-])n1CC(C)O (stereo not drawn) [SECNIDAZOLE]	–	Not Active	Not Active	Not Active	Not Active	Not Active	Not Active	Not Active	Not Active	Not Active	Not Active	Not Active	Not Active	–	–	–	–
Oc1c(I)cc(I)c2cccnc12 [IODOQUINOL]	–	Not Active	Not Active	Not Active	Not Active	Not Active	Not Active	Not Active	Not Active	Not Active	Not Active	Not Active	Not Active	–	–	–	–
CN1CCN2c3ccccc3Cc3ccccc3C2C1 (stereo not drawn) [MIANSERIN]	Not Active	Not Active	Not Active	–	–	Not Active	Not Active	Not Active	Not Active	Not Active	Not Active	Not Active	–	–	–	–	–
NNC(=O)c1ccncc1 [ISONIAZID]	–	Not Active	Not Active	Not Active	Not Active	Not Active	Not Active	Not Active	Not Active	Not Active	Not Active	Not Active	Not Active	–	–	–	–
